Several values for one entry are separate records, joined by “and”; a condition that tells them apart may be missing. Identical values can stand only once. Like-named read-outs stand apart in the source and are kept apart here.
Assay: Phase 1 first-in-human study (NCT04178902): pharmacokinetics
Assay type: in vivo
Excerpt: Other eligibility criteria included: Eastern Cooperative Oncology Group performance status ≤2, measurable disease as defined by International Myeloma Working Group (IMWG) consensus criteria, an echocardiogram with an ejection fraction ≥50%, and adequate hematologic, hepatic, and renal function. […] Safety evaluations included, but were not limited to, adverse event (AE) monitoring, physical examinations, vital sign measurements, electrocardiogram (ECG), cardiac enzyme monitoring, and clinical laboratory testing (hematology and chemistry) as a measure of safety and tolerability for the entire study duration. Parameters used to determine PK included maximum observed plasma concentration (Cmax), terminal elimination half-life (t1/2), area under the plasma concentration-time curve (AUC) from time 0 to time of last measurable concentration (AUCt), AUC from time 0 to infinity (AUC0-∞), and clearance using non-compartmental methods. […] Preliminary efficacy endpoints were overall response rate (ORR), clinical benefit rate (CBR), and duration of response (DOR) as evaluated per adapted IMWG[36] criteria for MM and per adapted International Working Group (IWG)[37] and European Leukemia Net (ELN)[38] criteria for AML. […]

[1] = Cycle 1 day 1, dose level 0.32 mg/kg (only half of this dose given), N=2, individual values
[2] = Cycle 1 day 15, 0.32 mg/kg, N=2, individual values
[3] = Cycle 1 day 15, 0.53 mg/kg, N=2, individual values
[4] = human, plasma, intravenous, 0.32 mg/kg, Cycle 1 day 1, dose level 0.32 mg/kg (only half of this dose given), N=2, individual values
[5] = human, plasma, intravenous, 0.53 mg/kg, Cycle 1 day 1, dose level 0.53 mg/kg (only half of this dose given), N=3
[6] = human, plasma, intravenous, 0.53 mg/kg, Cycle 1 day 15, 0.53 mg/kg, N=2, individual values

In the case of Cc1c(Cl)c2c(Cl)c(C)c1-c1c(-c3ccc(F)cc3)sc3ncnc(c13)O[C@@H](C(=O)O)Cc1cc(ccc1OCc1ccnc(-c3ccc(OC[C@H]4COCCO4)cc3)n1)OC[C@@H](CN1CCN(C)CC1)O2 [ABBV-467], the CONC_NGML (Cycle 1 Day 1, DOSE_MGKG 0.08, cohort 1, PKTIME 0.333333) is reported as 157 ng/mL and 146 ng/mL, the CONC_NGML (Cycle 1 Day 1, DOSE_MGKG 0.08, cohort 1, PKTIME 0.5) is reported as 198 ng/mL and 162 ng/mL and the CONC_NGML (Cycle 1 Day 1, DOSE_MGKG 0.16, cohort 2, PKTIME 0.5) is reported as 344 ng/mL. For the same compound, the CONC_NGML (Cycle 1 Day 1, DOSE_MGKG 0.16, cohort 2, PKTIME 1) was 21.9 ng/mL, the CONC_NGML (Cycle 1 Day 1, DOSE_MGKG 0.16, cohort 2, PKTIME 1.5) was 17 ng/mL and the CONC_NGML (Cycle 1 Day 1, DOSE_MGKG 0.16, cohort 2, PKTIME 2.5) was 6.62 ng/mL. The CONC_NGML (Cycle 1 Day 1, DOSE_MGKG 0.265, cohort 3, PKTIME 0.333333) was 655 ng/mL and 470 ng/mL, the CONC_NGML (Cycle 1 Day 1, DOSE_MGKG 0.265, cohort 3, PKTIME 0.5) was 708 ng/mL and 613 ng/mL and the CONC_NGML (Cycle 1 Day 1, DOSE_MGKG 0.265, cohort 3, PKTIME 1.5) was 26.5 ng/mL and 26.6 ng/mL. For the same compound, the CONC_NGML (Cycle 1 Day 1, DOSE_MGKG 0.265, cohort 3, PKTIME 2.5) was 6.81 ng/mL and 11.1 ng/mL, the CONC_NGML (Cycle 1 Day 15, DOSE_MGKG 0.16, cohort 1, PKTIME 0.333333) was 297 ng/mL and 479 ng/mL and the CONC_NGML (Cycle 1 Day 15, DOSE_MGKG 0.16, cohort 1, PKTIME 1) was 46.8 ng/mL and 44.6 ng/mL. For the same compound, the CONC_NGML (Cycle 1 Day 15, DOSE_MGKG 0.16, cohort 1, PKTIME 1.5) was 14.6 ng/mL and 10.1 ng/mL, the CONC_NGML (Cycle 1 Day 15, DOSE_MGKG 0.32, cohort 2, PKTIME 0.333333) was 529 ng/mL and the CONC_NGML (Cycle 1 Day 15, DOSE_MGKG 0.53, cohort 3, PKTIME 0.166667) was 940 ng/mL. The CONC_NGML (Cycle 1 Day 15, DOSE_MGKG 0.53, cohort 3, PKTIME 0.333333) was 1430 ng/mL, the CONC_NGML (Cycle 1 Day 15, DOSE_MGKG 0.53, cohort 3, PKTIME 0.5) was 1510 ng/mL and the CONC_NGML (Cycle 1 Day 15, DOSE_MGKG 0.53, cohort 3, PKTIME 1.5) was 60.6 ng/mL. The CONC_NGML (Cycle 1 Day 15, DOSE_MGKG 0.53, cohort 3, PKTIME 2.5) was 26.3 ng/mL, the CONC_NGML (Cycle 1 Day 15, DOSE_MGKG 0.53, cohort 3, PKTIME 4.5) was 8.14 ng/mL and the AUCinf [1] was 309 ng·h/mL. For the same compound, the AUCt [1] was 306 ng·h/mL, the CL [1] was 517 mL/h/kg and the Cmax [1] was 344 ng/mL. The t1/2 [1] was 34.4 min, the AUCinf [2] was 940 ng·h/mL and 350 ng·h/mL and the AUCt [2] was 346 ng·h/mL and 933 ng·h/mL. For the same compound, the CL [2] was 340 mL/h/kg and 914 mL/h/kg, the Cmax [2] was 1720 ng/mL and 646 ng/mL and the Tmax [2] was 45.0 min. The t1/2 [2] was 23.0 min and 54.3 min, the AUCinf [3] was 1290 ng·h/mL and the AUCt [3] was 1280 ng·h/mL. For the same compound, the CL [3] was 410 mL/h/kg, the Cmax [3] was 1860 ng/mL and the t1/2 [3] was 64.1 min. The “pharmacokinetics” value (human patients at the doses studied) was “linear pharmacokinetics”, the concentration at 0 h (human, in vivo, 0.08 mg/kg, Cycle 1 Day 1, DOSE_MGKG 0.08, cohort 1, PKTIME 0, read-out: CONC_NGML) was 0 ng/mL and the concentration at 20 min (human, in vivo, 0.08 mg/kg, Cycle 1 Day 1, DOSE_MGKG 0.08, cohort 1, PKTIME 0.333333, read-out: CONC_NGML) was 132 ng/mL. The concentration at 0.5 h (human, in vivo, 0.08 mg/kg, Cycle 1 Day 1, DOSE_MGKG 0.08, cohort 1, PKTIME 0.5, read-out: CONC_NGML) was 252 ng/mL, the concentration at 4.5 h (human, in vivo, 0.08 mg/kg, Cycle 1 Day 1, DOSE_MGKG 0.08, cohort 1, PKTIME 4.5, read-out: CONC_NGML) was 0 ng/mL and the concentration at […] (human, in vivo, 0.08 mg/kg, Cycle 1 Day 1, DOSE_MGKG 0.08, cohort 1, PKTIME 8.5, read-out: CONC_NGML) was 0 ng/mL. The concentration at […] (human, in vivo, 0.08 mg/kg, Cycle 1 Day 1, DOSE_MGKG 0.08, cohort 1, PKTIME 24.5, read-out: CONC_NGML) was 0 ng/mL, the concentration at 0 h (human, in vivo, 0.265 mg/kg, Cycle 1 Day 1, DOSE_MGKG 0.265, cohort 3, PKTIME 0, read-out: CONC_NGML) was 0 ng/mL and the concentration at 20 min (human, in vivo, 0.265 mg/kg, Cycle 1 Day 1, DOSE_MGKG 0.265, cohort 3, PKTIME 0.333333, read-out: CONC_NGML) was 904 ng/mL. It also gave a concentration at 0.5 h (human, in vivo, 0.265 mg/kg, Cycle 1 Day 1, DOSE_MGKG 0.265, cohort 3, PKTIME 0.5, read-out: CONC_NGML) of 564 ng/mL, a concentration at 1.5 h (human, in vivo, 0.265 mg/kg, Cycle 1 Day 1, DOSE_MGKG 0.265, cohort 3, PKTIME 1.5, read-out: CONC_NGML) of 14.9 ng/mL and a concentration at […] (human, in vivo, 0.265 mg/kg, Cycle 1 Day 1, DOSE_MGKG 0.265, cohort 3, PKTIME 2.5, read-out: CONC_NGML) of 8.88 ng/mL. The concentration at […] (human, in vivo, 0.265 mg/kg, Cycle 1 Day 1, DOSE_MGKG 0.265, cohort 3, PKTIME 8.5, read-out: CONC_NGML) was 0 ng/mL, the concentration at […] (human, in vivo, 0.265 mg/kg, Cycle 1 Day 1, DOSE_MGKG 0.265, cohort 3, PKTIME 24.5, read-out: CONC_NGML) was 0 ng/mL and the concentration at 0 h (human, in vivo, 0.32 mg/kg, Cycle 1 Day 15, DOSE_MGKG 0.32, cohort 2, PKTIME 0, read-out: CONC_NGML) was 0 ng/mL. It also gave a concentration at 20 min (human, in vivo, 0.32 mg/kg, Cycle 1 Day 15, DOSE_MGKG 0.32, cohort 2, PKTIME 0.333333, read-out: CONC_NGML) of 646 ng/mL, a concentration at […] (human, in vivo, 0.32 mg/kg, Cycle 1 Day 15, DOSE_MGKG 0.32, cohort 2, PKTIME 8.5, read-out: CONC_NGML) of 0 ng/mL and a concentration at […] (human, in vivo, 0.32 mg/kg, Cycle 1 Day 15, DOSE_MGKG 0.32, cohort 2, PKTIME 24.5, read-out: CONC_NGML) of 0 ng/mL. It also gave a concentration at 10 min (human, in vivo, 0.53 mg/kg, Cycle 1 Day 15, DOSE_MGKG 0.53, cohort 3, PKTIME 0.166667, read-out: CONC_NGML) of 731 ng/mL, a concentration at 20 min (human, in vivo, 0.53 mg/kg, Cycle 1 Day 15, DOSE_MGKG 0.53, cohort 3, PKTIME 0.333333, read-out: CONC_NGML) of 1370 ng/mL and a concentration at 0.5 h (human, in vivo, 0.53 mg/kg, Cycle 1 Day 15, DOSE_MGKG 0.53, cohort 3, PKTIME 0.5, read-out: CONC_NGML) of 1860 ng/mL. The concentration at 1.5 h (human, in vivo, 0.53 mg/kg, Cycle 1 Day 15, DOSE_MGKG 0.53, cohort 3, PKTIME 1.5, read-out: CONC_NGML) was 87.9 ng/mL, the concentration at […] (human, in vivo, 0.53 mg/kg, Cycle 1 Day 15, DOSE_MGKG 0.53, cohort 3, PKTIME 2.5, read-out: CONC_NGML) was 27.3 ng/mL and the concentration at 4.5 h (human, in vivo, 0.53 mg/kg, Cycle 1 Day 15, DOSE_MGKG 0.53, cohort 3, PKTIME 4.5, read-out: CONC_NGML) was 11.3 ng/mL. The concentration at […] (human, in vivo, 0.53 mg/kg, Cycle 1 Day 15, DOSE_MGKG 0.53, cohort 3, PKTIME 8.5, read-out: CONC_NGML) was 0 ng/mL, the concentration at […] (human, in vivo, 0.53 mg/kg, Cycle 1 Day 15, DOSE_MGKG 0.53, cohort 3, PKTIME 24.5, read-out: CONC_NGML) was 0 ng/mL and the AUC(0-inf) [4] was 167 ng·h/mL. For the same compound, the AUC(0-t) [4] was 159 ng·h/mL, the clearance [4] was 15.9 mL/min/kg and the Cmax (human, plasma, intravenous, 0.32 mg/kg, Cycle 1 day 1, dose level 0.32 mg/kg (only half of this dose given), N=2, individual values, read-out: Cmax) was 474 ng/mL. For the same compound, the Tmax (human, plasma, intravenous, 0.32 mg/kg, Cycle 1 day 1, dose level 0.32 mg/kg (only half of this dose given), N=2, individual values, read-out: Tmax (converted)) was 20 min, the half-life (human, plasma, intravenous, 0.32 mg/kg, Cycle 1 day 1, dose level 0.32 mg/kg (only half of this dose given), N=2, individual values, read-out: t1/2) was 50.8 min and the AUC(0-inf) [5] was 435 ng·h/mL. It also gave an AUC(0-t) [5] of 428 ng·h/mL, a clearance [5] of 10.2 mL/min/kg and a half-life (human, plasma, intravenous, 0.53 mg/kg, Cycle 1 day 1, dose level 0.53 mg/kg (only half of this dose given), N=3, harmonic mean (pseudo SD), read-out: t1/2) of 55.5 min. For the same compound, the Tmax (human, plasma, intravenous, 0.53 mg/kg, Cycle 1 day 1, dose level 0.53 mg/kg (only half of this dose given), N=3, median, read-out: Tmax (converted)) was 30 min, the AUC(0-inf) [6] was 933 ng·h/mL and the AUC(0-t) [6] was 921 ng·h/mL. For the same compound, the clearance [6] was 9.47 mL/min/kg, the Cmax (human, plasma, intravenous, 0.53 mg/kg, Cycle 1 day 15, 0.53 mg/kg, N=2, individual values, read-out: Cmax) was 1510 ng/mL and the Tmax (human, plasma, intravenous, 0.53 mg/kg, Cycle 1 day 15, 0.53 mg/kg, N=2, individual values, read-out: Tmax (converted)) was 30 min. It also gave a half-life (human, plasma, intravenous, 0.53 mg/kg, Cycle 1 day 15, 0.53 mg/kg, N=2, individual values, read-out: t1/2) of 63.3 min, a half-life (human, plasma, intravenous, […], Cycle 1 day 1, dose level […] (only half of this dose given), N=3, harmonic mean (pseudo SD), read-out: t1/2) of 16.1 min and a Tmax (human, plasma, intravenous, […], Cycle 1 day 1, dose level […] (only half of this dose given), N=3, median, read-out: Tmax (converted)) of 30 min. For the same compound, the clearance (human, plasma, intravenous, […], Cycle 1 day 15, […], N=3) was 10.4 mL/min/kg, the Tmax (human, plasma, intravenous, […], Cycle 1 day 15, […], N=3, median, read-out: Tmax (converted)) was 30 min and the half-life (human, plasma, iv, patients, 30-minute IV infusion, 0.08–0.53 mg/kg, read-out: average half-life) was under 60 min. The “time after completion of infusion at which circulating plasma concentrations were eliminated” value (patients, 30-minute IV infusion) was 4 h.
